Where two headings read alike, the source gives them in different places. No end group written: not given here.
Columns and labels:
VEEV TC-83 [1] = format: cell-based, Venezuelan equine encephalitis virus
VEEV TC-83 [2] = format: cell-based, Venezuelan equine encephalitis virus; remark: listed apart in the source
VEEV TC-83 [3] = format: cell-based, Venezuelan equine encephalitis virus; remark: listed apart in the source
VEEV TrD strain [4] = format: cell-based, Venezuelan equine encephalitis virus
VEEV TrD strain [5] = format: cell-based, Venezuelan equine encephalitis virus; remark: listed apart in the source
EEEV (GA97 strain) = format: cell-based, eastern equine encephalitis virus
RVFV (MP-12 strain) = format: cell-based, Rift Valley fever virus
VEEV TC-83 [6] = format: cell-based, Venezuelan equine encephalitis virus; remark: listed apart in the source
[7] = tested on: 84 human inflammatory cytokines and receptors; format: cell-based
[8] = tested on: 84 human inflammatory cytokines and receptors; format: cell-based; remark: listed apart in the source
[9] = tested on: IFNγ, IL1α, IL1β, IL2, IL4, IL6, IL10, IL12p70, TNFα; format: cell-based, human
[10] = tested on: IFNγ, IL1α, IL1β, IL2, IL4, IL6, IL10, IL12p70, TNFα; format: cell-based, human; remark: listed apart in the source
HMC3 cells = settings: 24 h

FAVVKFRFWVWWFRWR-NH2 [A2]
decrease in extracellular genomic TC-83 RNA copy numbers (VEEV TC-83 [1]): more than 50% | decrease in intracellular genomic TC-83 RNA copy numbers (VEEV TC-83 [1]): more than 50% | decrease in TC-83 infectious titers (VEEV TC-83 [2]): ~ 1,000 fold | genomic TC-83 RNA copy numbers (intracellular and extracellular) (VEEV TC-83 [3]): reduced | decrease of TrD titers (VEEV TrD strain [4]): about 100 fold | TrD titer inhibition, cells treated at infection relative to pre-treated cells (VEEV TrD strain [5]): tenfold | decrease of TrD titers (VEEV TrD strain [5]): about 100 fold | inhibition of replication of EEEV (EEEV (GA97 strain)): higher than tenfold | lower levels of EEEV replication, pre-treated cells (EEEV (GA97 strain)): ~ 4.5 fold | inhibition of replication of RVFV (RVFV (MP-12 strain)): less than tenfold | inhibition of VEEV attachment (amount of viral RNA entering cells) (VEEV TC-83 [6]): inhibited VEEV attachment to cells | Fold Regulation, AIMP1 [7]: -2.17 | Fold Regulation, B2M [7]: -2.51 | Fold Regulation, C5 [7]: -3.11 | Fold Regulation, CCL1 [7]: -2.21 | Fold Regulation, CCL3 [7]: -11.1 | Fold Regulation, CCL4 [7]: -12.54 | Fold Regulation, CCL7 [7]: -3.26 | Fold Regulation, CCL8 [7]: -6.18 | Fold Regulation, CCL13 [7]: -2.73 | Fold Regulation, CCL17 [7]: -2.71 | Fold Regulation, CCL20 [7]: -2.91 | Fold Regulation, CCL23 [7]: -2.03 | Fold Regulation, CCL24 [7]: -2.6 | Fold Regulation, CCL26 [7]: -2.44 | Fold Regulation, CCR1 [7]: -2.78 | Fold Regulation, CCR2 [7]: -7.36 | Fold Regulation, CCR3 [7]: -2.71 | Fold Regulation, CCR5 [7]: -3.23 | Fold Regulation, CCR6 [7]: -5.15 | Fold Regulation, CCR8 [7]: -2.77 | Fold Regulation, CD40LG [7]: -8.44 | Fold Regulation, CSF1 [7]: -2.23 | Fold Regulation, CSF2 [7]: -7.67 | Fold Regulation, CSF3 [7]: -8.01 | Fold Regulation, CXCL1 [7]: -2.79 | Fold Regulation, CXCL2 [7]: -2.97 | Fold Regulation, CXCL3 [7]: -8.92 | Fold Regulation, CXCL5 [7]: -3.43 | Fold Regulation, CXCL6 [7]: -3.46 | Fold Regulation, CXCL8 [7]: -4.74 | Fold Regulation, CXCL9 [7]: -2.67 | Fold Regulation, CXCR1 [7]: -4.9 | Fold Regulation, CXCR2 [7]: -2.22 | Fold Regulation, FASLG [7]: -2.27 | Fold Regulation, HPRT1 [7]: -2.53 | Fold Regulation, IFNA2 [7]: -4.07 | Fold Regulation, IL1A [7]: -40.4 | Fold Regulation, IL1B [7]: -4.37 | Fold Regulation, IL1R1 [7]: -2.63 | Fold Regulation, IL1RN [7]: 2.19 | Fold Regulation, IL3 [7]: -2.76 | Fold Regulation, IL5 [7]: -5.46 | Fold Regulation, IL5RA [7]: -4.55 | Fold Regulation, IL7 [7]: 9.88 | Fold Regulation, IL9 [7]: -3.51 | Fold Regulation, IL9R [7]: -2.48 | Fold Regulation, IL10RA [7]: -3.22 | Fold Regulation, IL10RB [7]: -2.31 | Fold Regulation, IL13 [7]: -4.71 | Fold Regulation, IL15 [7]: -2.47 | Fold Regulation, IL16 [7]: -2.42 | Fold Regulation, IL17A [7]: -10.02 | Fold Regulation, IL17F [7]: -13.11 | Fold Regulation, IL21 [7]: -2.43 | Fold Regulation, IL27 [7]: -2.99 | Fold Regulation, LTA [7]: -4.72 | Fold Regulation, LTB [7]: -3.31 | Fold Regulation, NAMPT [7]: -2.42 | Fold Regulation, OSM [7]: -9.67 | Fold Regulation, RPLP0 [7]: -2.88 | Fold Regulation, SPP1 [7]: -2.4 | Fold Regulation, TNF [7]: -9.95 | Fold Regulation, TNFRSF11B [7]: -4.24 | Fold Regulation, TNFSF4 [7]: -2.68 | Fold Regulation, TNFSF10 [7]: -2.78 | Fold Regulation, TNFSF11 [7]: -4.37 | Fold Regulation, TNFSF13 [7]: -6.12 | Fold Regulation, TNFSF13B [7]: -3.19 | genes down regulated (twofold) [7]: 67 genes | genes out of 84 with greater than twofold change in regulation [7]: 71 genes | genes upregulated (greater than twofold) [7]: 4 genes | Fold Regulation, CCL2 [8]: -2.07 | genes above/below a twofold regulation change [8]: eight | secretion of cytokines from TC-83 infected cells [9]: inhibit secretion of cytokines | production of cytokines, pro-inflammatory and anti-inflammatory, from uninfected cells [10]: decreased the production of cytokines | CC50 (HMC3 cells): greater than 250 µg/mL

FQAVKFRFWVWWFRWR-NH2 [A3]
decrease in extracellular genomic TC-83 RNA copy numbers (VEEV TC-83 [1]): more than 50% | decrease in intracellular genomic TC-83 RNA copy numbers (VEEV TC-83 [1]): more than 50% | decrease in TC-83 infectious titers (VEEV TC-83 [2]): ~ 100 fold | genomic TC-83 RNA copy numbers (intracellular and extracellular) (VEEV TC-83 [3]): reduced | decrease of TrD titers (VEEV TrD strain [4]): about 100 fold | TrD inhibitory response, pre-treatment relative to no pre-treatment (VEEV TrD strain [5]): tenfold | decrease of TrD titers (VEEV TrD strain [5]): about 100 fold | inhibition of replication of EEEV (EEEV (GA97 strain)): higher than tenfold | lower levels of EEEV replication, pre-treated cells (EEEV (GA97 strain)): ~ 4.5 fold | inhibition of replication of RVFV (RVFV (MP-12 strain)): less than tenfold | inhibition of VEEV attachment (amount of viral RNA entering cells) (VEEV TC-83 [6]): tenfold | Fold Regulation, C5 [7]: -4.7 | Fold Regulation, CCL1 [7]: -3.46 | Fold Regulation, CCL3 [7]: -6.01 | Fold Regulation, CCL4 [7]: -10.37 | Fold Regulation, CCL5 [7]: -2.56 | Fold Regulation, CCL17 [7]: -2.48 | Fold Regulation, CCL20 [7]: -2.88 | Fold Regulation, CCL26 [7]: -2.76 | Fold Regulation, CCR1 [7]: -2.01 | Fold Regulation, CCR8 [7]: -2.56 | Fold Regulation, CD40LG [7]: -13.61 | Fold Regulation, CSF1 [7]: -2.16 | Fold Regulation, CSF2 [7]: -6.65 | Fold Regulation, CSF3 [7]: -2.47 | Fold Regulation, CX3CL1 [7]: -40.25 | Fold Regulation, CXCL2 [7]: -2.14 | Fold Regulation, CXCL3 [7]: -7.92 | Fold Regulation, CXCL5 [7]: -2.3 | Fold Regulation, CXCL8 [7]: -3.42 | Fold Regulation, CXCL10 [7]: -2.5 | Fold Regulation, CXCL12 [7]: -2.21 | Fold Regulation, CXCL13 [7]: -2.43 | Fold Regulation, IL1A [7]: -75.02 | Fold Regulation, IL1B [7]: -3.92 | Fold Regulation, IL1R1 [7]: -2.45 | Fold Regulation, IL5 [7]: -4.29 | Fold Regulation, IL5RA [7]: -6.83 | Fold Regulation, IL10RA [7]: -2.36 | Fold Regulation, IL10RB [7]: -3.04 | Fold Regulation, IL15 [7]: -2.18 | Fold Regulation, IL16 [7]: -2.19 | Fold Regulation, IL17F [7]: -17.44 | Fold Regulation, IL27 [7]: -3.21 | Fold Regulation, LTB [7]: -2.77 | Fold Regulation, OSM [7]: -11.73 | Fold Regulation, RPLP0 [7]: -2.15 | Fold Regulation, TNF [7]: -30.83 | Fold Regulation, TNFRSF11B [7]: -3.73 | Fold Regulation, TNFSF10 [7]: -3.34 | Fold Regulation, TNFSF13B [7]: -4.76 | genes down regulated (twofold) [7]: 60 genes | Fold Regulation, CCL13 [8]: 2.44 | Fold Regulation, CCL16 [8]: 3.4 | Fold Regulation, CCL22 [8]: 3.4 | Fold Regulation, CX3CR1 [8]: 2.38 | Fold Regulation, CXCL9 [8]: 3.12 | Fold Regulation, FASLG [8]: 2.15 | Fold Regulation, IL9R [8]: 2.56 | Fold Regulation, IL33 [8]: 3.21 | genes above/below a twofold regulation change [8]: 30 genes | genes down-regulated (twofold) [8]: 2 genes | genes upregulated (twofold) [8]: 28 genes | secretion of cytokines from TC-83 infected cells [9]: inhibit secretion of cytokines | production of cytokines, pro-inflammatory and anti-inflammatory, from uninfected cells [10]: decreased the production of cytokines | CC50 (HMC3 cells): greater than 250 µg/mL

From article PMC7722873 (Scientific Reports, 2020)
